Results from the NIST ThermoML archive (doi:10.1016/j.fluid.2014.11.020).
± gives the expanded uncertainty stated by the source.

Experiment: activity coefficient (dimensionless); of the first substance listed, at infinite dilution; xn = mol fraction of the nth substance listed
Settings: Liquid, Chromatography, x1 = 0

| Compound | activity coefficient (323.15 K) | activity coefficient (333.15 K) | activity coefficient (343.15 K) |
| --- | --- | --- | --- |
| CCCO [propan-1-ol] + Cn1cc[n+](COCCCOC[n+]2ccn(C)c2)c1.O=S(=O)([N-]S(=O)(=O)C(F)(F)F)C(F)(F)F.O=S(=O)([N-]S(=O)(=O)C(F)(F)F)C(F)(F)F | 1.43 ± 0.09 | 1.32 ± 0.09 | 1.19 ± 0.08 |
| CCCO [propan-1-ol] + N#C[N-]C#N.N#C[N-]C#N.c1ccc(Cn2cc[n+](COCCCOC[n+]3ccn(Cc4ccccc4)c3)c2)cc1 | 1.24 ± 0.08 | 1.2 ± 0.08 | 1.14 ± 0.07 |
| CC(C)O [propan-2-ol] + CCCCCCCCn1cc[n+](COCCC)c1C.O=S(=O)([N-]S(=O)(=O)C(F)(F)F)C(F)(F)F | 1.16 ± 0.07 | 1.05 ± 0.07 | 0.99 ± 0.06 |
| CC(C)O [propan-2-ol] + CCCCCCCCn1cc[n+](COCCCOC[n+]2ccn(CCCCCCCC)c2C)c1C.N#C[N-]C#N.N#C[N-]C#N | 0.4 ± 0.03 | 0.38 ± 0.03 | 0.38 ± 0.03 |
| CC(C)O [propan-2-ol] + CCCCCCCCn1cc[n+](COCCCOC[n+]2ccn(CCCCCCCC)c2C)c1C.O=S(=O)([N-]S(=O)(=O)C(F)(F)F)C(F)(F)F.O=S(=O)([N-]S(=O)(=O)C(F)(F)F)C(F)(F)F | 0.68 ± 0.05 | 0.61 ± 0.04 | 0.56 ± 0.04 |
| CC(C)O [propan-2-ol] + CCCOC[n+]1ccc(N(C)C)cc1.O=S(=O)([N-]S(=O)(=O)C(F)(F)F)C(F)(F)F | 1.7 ± 0.11 | 1.62 ± 0.11 | 1.45 ± 0.1 |
| CC(C)O [propan-2-ol] + CCCOC[n+]1ccn(C)c1.F[B-](F)(F)F | 2.91 ± 0.2 | 2.7 ± 0.18 | 2.6 ± 0.18 |
| CC(C)O [propan-2-ol] + CCCOC[n+]1ccn(C)c1.N#C[N-]C#N | 1.1 ± 0.07 | 1.07 ± 0.07 | 1.04 ± 0.07 |
| CC(C)O [propan-2-ol] + CCCOC[n+]1ccn(C)c1.O=S(=O)([N-]S(=O)(=O)C(F)(F)F)C(F)(F)F | 1.9 ± 0.13 | 1.51 ± 0.1 | 1.39 ± 0.09 |
| CC(C)O [propan-2-ol] + CCCOC[n+]1ccn(Cc2ccccc2)c1.F[B-](F)(F)F | 2.19 ± 0.15 | 1.96 ± 0.13 | 1.81 ± 0.12 |
| CC(C)O [propan-2-ol] + CCCOC[n+]1ccn(Cc2ccccc2)c1.N#C[N-]C#N | 0.85 ± 0.05 | 0.84 ± 0.05 | 0.82 ± 0.05 |
| CC(C)O [propan-2-ol] + CN(C)c1cc[n+](COCCCOC[n+]2ccc(N(C)C)cc2)cc1.O=S(=O)([N-]S(=O)(=O)C(F)(F)F)C(F)(F)F.O=S(=O)([N-]S(=O)(=O)C(F)(F)F)C(F)(F)F | 1.42 ± 0.09 | 1.3 ± 0.08 | 1.18 ± 0.08 |
| CC(C)O [propan-2-ol] + Cn1cc[n+](COCCCOC[n+]2ccn(C)c2)c1.N#C[N-]C#N.N#C[N-]C#N | 1.39 ± 0.09 | 1.32 ± 0.09 | 1.26 ± 0.08 |
| CC(C)O [propan-2-ol] + Cn1cc[n+](COCCCOC[n+]2ccn(C)c2)c1.O=S(=O)([N-]S(=O)(=O)C(F)(F)F)C(F)(F)F.O=S(=O)([N-]S(=O)(=O)C(F)(F)F)C(F)(F)F | 1.31 ± 0.09 | 1.22 ± 0.08 | 1.05 ± 0.07 |
| CC(C)O [propan-2-ol] + N#C[N-]C#N.N#C[N-]C#N.c1ccc(Cn2cc[n+](COCCCOC[n+]3ccn(Cc4ccccc4)c3)c2)cc1 | 1.57 ± 0.1 | 1.45 ± 0.1 | 1.39 ± 0.09 |
| c1ccncc1 [pyridine] + CCCCCCCCn1cc[n+](COCCC)c1C.N#C[N-]C#N | 0.66 ± 0.05 | 0.59 ± 0.04 | 0.54 ± 0.04 |
| c1ccncc1 [pyridine] + CCCCCCCCn1cc[n+](COCCC)c1C.O=S(=O)([N-]S(=O)(=O)C(F)(F)F)C(F)(F)F | 0.35 ± 0.03 | 0.34 ± 0.03 | 0.3 ± 0.03 |
| c1ccncc1 [pyridine] + CCCCCCCCn1cc[n+](COCCCOC[n+]2ccn(CCCCCCCC)c2C)c1C.N#C[N-]C#N.N#C[N-]C#N | 0.4 ± 0.03 | 0.38 ± 0.03 | 0.38 ± 0.03 |
| c1ccncc1 [pyridine] + CCCCCCCCn1cc[n+](COCCCOC[n+]2ccn(CCCCCCCC)c2C)c1C.O=S(=O)([N-]S(=O)(=O)C(F)(F)F)C(F)(F)F.O=S(=O)([N-]S(=O)(=O)C(F)(F)F)C(F)(F)F | 0.13 ± 0.03 | 0.14 ± 0.03 | 0.15 ± 0.03 |
| c1ccncc1 [pyridine] + CCCOC[n+]1ccc(N(C)C)cc1.O=S(=O)([N-]S(=O)(=O)C(F)(F)F)C(F)(F)F | 0.43 ± 0.04 | 0.45 ± 0.04 | 0.46 ± 0.04 |
| c1ccncc1 [pyridine] + CCCOC[n+]1ccn(C)c1.N#C[N-]C#N | 0.91 ± 0.06 | 0.93 ± 0.06 | 0.97 ± 0.06 |
| c1ccncc1 [pyridine] + CCCOC[n+]1ccn(Cc2ccccc2)c1.F[B-](F)(F)F | 0.6 ± 0.04 | 0.61 ± 0.04 | 0.65 ± 0.04 |

| Compound | activity coefficient (323.15 K) | activity coefficient (333.15 K) | activity coefficient (343.15 K) |
| --- | --- | --- | --- |
| c1ccncc1 [pyridine] + CCCOC[n+]1ccn(Cc2ccccc2)c1.N#C[N-]C#N | 0.67 ± 0.05 | 0.69 ± 0.05 | 0.71 ± 0.05 |
| c1ccncc1 [pyridine] + CCCOC[n+]1ccn(Cc2ccccc2)c1.O=S(=O)([N-]S(=O)(=O)C(F)(F)F)C(F)(F)F | – | 0.28 ± 0.03 | 0.29 ± 0.03 |
| c1ccncc1 [pyridine] + CN(C)c1cc[n+](COCCCOC[n+]2ccc(N(C)C)cc2)cc1.O=S(=O)([N-]S(=O)(=O)C(F)(F)F)C(F)(F)F.O=S(=O)([N-]S(=O)(=O)C(F)(F)F)C(F)(F)F | 0.29 ± 0.03 | 0.31 ± 0.03 | 0.32 ± 0.03 |
| c1ccncc1 [pyridine] + Cn1cc[n+](COCCCOC[n+]2ccn(C)c2)c1.N#C[N-]C#N.N#C[N-]C#N | 1 ± 0.06 | 1.01 ± 0.06 | 1.04 ± 0.07 |
| c1ccncc1 [pyridine] + Cn1cc[n+](COCCCOC[n+]2ccn(C)c2)c1.O=S(=O)([N-]S(=O)(=O)C(F)(F)F)C(F)(F)F.O=S(=O)([N-]S(=O)(=O)C(F)(F)F)C(F)(F)F | 0.4 ± 0.03 | 0.41 ± 0.03 | 0.41 ± 0.03 |
| c1ccncc1 [pyridine] + N#C[N-]C#N.N#C[N-]C#N.c1ccc(Cn2cc[n+](COCCCOC[n+]3ccn(Cc4ccccc4)c3)c2)cc1 | 1.1 ± 0.07 | 1.1 ± 0.07 | 1.12 ± 0.07 |
| ClC(Cl)(Cl)Cl [tetrachloromethane] + CCCCCCCCn1cc[n+](COCCC)c1C.N#C[N-]C#N | 1.21 ± 0.08 | 1.23 ± 0.08 | 1.24 ± 0.08 |
| ClC(Cl)(Cl)Cl [tetrachloromethane] + CCCCCCCCn1cc[n+](COCCC)c1C.O=S(=O)([N-]S(=O)(=O)C(F)(F)F)C(F)(F)F | 1.21 ± 0.08 | 1.19 ± 0.08 | 1.24 ± 0.08 |
| ClC(Cl)(Cl)Cl [tetrachloromethane] + CCCCCCCCn1cc[n+](COCCCOC[n+]2ccn(CCCCCCCC)c2C)c1C.N#C[N-]C#N.N#C[N-]C#N | 1.11 ± 0.07 | 1.12 ± 0.07 | 1.12 ± 0.07 |
| ClC(Cl)(Cl)Cl [tetrachloromethane] + CCCCCCCCn1cc[n+](COCCCOC[n+]2ccn(CCCCCCCC)c2C)c1C.O=S(=O)([N-]S(=O)(=O)C(F)(F)F)C(F)(F)F.O=S(=O)([N-]S(=O)(=O)C(F)(F)F)C(F)(F)F | 0.99 ± 0.06 | 0.92 ± 0.06 | 1.02 ± 0.06 |
| ClC(Cl)(Cl)Cl [tetrachloromethane] + CCCOC[n+]1ccc(N(C)C)cc1.O=S(=O)([N-]S(=O)(=O)C(F)(F)F)C(F)(F)F | 2.01 ± 0.14 | 2.08 ± 0.14 | 1.95 ± 0.13 |
| ClC(Cl)(Cl)Cl [tetrachloromethane] + CCCOC[n+]1ccn(C)c1.F[B-](F)(F)F | 8.91 ± 0.61 | 8.58 ± 0.59 | 8.19 ± 0.56 |
| ClC(Cl)(Cl)Cl [tetrachloromethane] + CCCOC[n+]1ccn(C)c1.N#C[N-]C#N | 4.04 ± 0.28 | 4.08 ± 0.28 | 4.39 ± 0.3 |
| ClC(Cl)(Cl)Cl [tetrachloromethane] + CCCOC[n+]1ccn(C)c1.O=S(=O)([N-]S(=O)(=O)C(F)(F)F)C(F)(F)F | 3 ± 0.2 | 3.05 ± 0.21 | 2.85 ± 0.19 |
| ClC(Cl)(Cl)Cl [tetrachloromethane] + CCCOC[n+]1ccn(Cc2ccccc2)c1.F[B-](F)(F)F | 5.01 ± 0.34 | 4.71 ± 0.32 | 4.58 ± 0.31 |
| ClC(Cl)(Cl)Cl [tetrachloromethane] + CCCOC[n+]1ccn(Cc2ccccc2)c1.N#C[N-]C#N | 2.5 ± 0.17 | 2.58 ± 0.18 | 2.67 ± 0.18 |
| ClC(Cl)(Cl)Cl [tetrachloromethane] + CCCOC[n+]1ccn(Cc2ccccc2)c1.O=S(=O)([N-]S(=O)(=O)C(F)(F)F)C(F)(F)F | 1.87 ± 0.13 | 1.83 ± 0.12 | 1.81 ± 0.12 |
| ClC(Cl)(Cl)Cl [tetrachloromethane] + Cn1cc[n+](COCCCOC[n+]2ccn(C)c2)c1.N#C[N-]C#N.N#C[N-]C#N | 6.68 ± 0.46 | 6.94 ± 0.47 | 7 ± 0.48 |
| ClC(Cl)(Cl)Cl [tetrachloromethane] + Cn1cc[n+](COCCCOC[n+]2ccn(C)c2)c1.O=S(=O)([N-]S(=O)(=O)C(F)(F)F)C(F)(F)F.O=S(=O)([N-]S(=O)(=O)C(F)(F)F)C(F)(F)F | 3.21 ± 0.22 | 3.03 ± 0.21 | 2.29 ± 0.16 |
| CCCCCCCCCCCCCC [tetradecane] + CCCOC[n+]1ccn(C)c1.F[B-](F)(F)F | 2700 ± 190 | 2500 ± 170 | 2300 ± 160 |
| CCCCCCCCCCCCCC [tetradecane] + CCCOC[n+]1ccn(C)c1.N#C[N-]C#N | 1510 ± 100 | 1390 ± 96 | 1260 ± 87 |
| c1ccsc1 [thiophene] + CCCCCCCCn1cc[n+](COCCC)c1C.N#C[N-]C#N | 0.66 ± 0.05 | 0.66 ± 0.05 | 0.64 ± 0.04 |
